Measured values reported in patent US20100311643A1, “USE OF GLP-1 AS A THERAPEUTIC AGENT” (priority 2007, published 2010).

How the values were obtained:
[1] = in vitro; conditions: human, MRC-5 cells (embryonal lung fibroblasts)
[2] = test system: MRSA; conditions: 5 micrograms per ml
[3] = test system: Streptococcus pneumoniae; format: cell-based; conditions: 5 micrograms per ml
[4] = Cytotoxicity in the HBV assay (dye uptake cell viability); conditions: human
[5] = test system: Pseudomonas aeruginosa; format: cell-based; conditions: 5 micrograms per ml
[6] = in vitro; conditions: human, CEM-SS cells (uninfected, cells plus peptide only)
[7] = test system: HIV-1IIIB; experiment: HIV-1 antiviral assay (CPE reduction, MTS staining); format: cell-based; conditions: test peptide 10 micrograms per ml; 6 days post-infection; triplicate

| SMILES | viability at 144 h [1] [%] | % inhibition [2] [%] | % inhibition [3] [%] | viability at 144 h, 10 micrograms per ml [4] [%] | % inhibition [5] [%] | viability at 10 micrograms per ml [6] [%] | % CPE reduction in HIV-1 infected CEM-SS cells [7] [%] |
| --- | --- | --- | --- | --- | --- | --- | --- |
| CC[C@H](C)[C@H](NC(=O)[C@H](Cc1ccccc1)NC(=O)[C@H](CCC(=O)O)NC(=O)[C@H](CCCCN)NC(=O)[C@H](C)NC(=O)[C@H](C)NC(=O)[C@H](CCC(N)=O)NC(=O)CNC(=O)[C@H](CCC(=O)O)NC(=O)[C@H](CC(C)C)NC(=O)[C@H](Cc1ccc(O)cc1)NC(=O)[C@H](CO)NC(=O)[C@H](CO)NC(=O)[C@@H](NC(=O)[C@H](CC(=O)O)NC(=O)[C@H](CO)NC(=O)[C@@H](NC(=O)[C@H](Cc1ccccc1)NC(=O)[C@@H](NC(=O)CNC(=O)[C@H](CCC(=O)O)NC(=O)[C@H](C)NC(=O)[C@H](Cc1c[nH]cn1)NC(=O)[C@H](CCCNC(=N)N)NC(=O)[C@H](CCC(=O)O)NC(=O)[C@H](Cc1ccccc1)NC(=O)[C@H](CCC(=O)O)NC(=O)[C@H](CC(=O)O)NC(=O)[C@@H](N)Cc1c[nH]cn1)[C@@H](C)O)[C@@H](C)O)C(C)C)C(=O)N[C@@H](C)C(=O)N[C@@H](Cc1c[nH]c2ccccc12)C(=O)N[C@@H](CC(C)C)C(=O)N[C@H](C(=O)N[C@@H](CCCCN)C(=O)NCC(=O)N[C@@H](CCCNC(=N)N)C(=O)NCC(=O)O)C(C)C [GLP-1] | 100 | 0.0 | 0.0 | 95.8 | 0.0 | 100 | – |
| Cc1cn([C@H]2C[C@H](N=[N+]=[N-])[C@@H](CO)O2)c(=O)[nH]c1=O [AZT] | – | – | – | – | – | – | 99 |
